For one test, the target named is T1, human Kv1.5 (Homo sapiens, UniProt P22460).
T1 construct: expressed in transfected cells; host or cells: stably transfected cells
Briefly: Kv1.5 Autopatch Electrophysiology. The following applies: 1 μM compound, CHO cells stably transfected with human Kv1.5, AutoPatch whole cell mode, room temperature; for inhibition at 1 µM: read-out: Kv 1.5% Inhibition at 1 μM. It is filed as cell-based. The procedure:
Kv1.5 Autopatch Electrophysiology Method
Cells stably transfected with cDNA for human Kv1.5 (in pEF6::VA-His-TOPO) were grown in Ex-cell 302 serum-free medium for CHO cells, supplemented with 10 μl/ml [100×] glutamine, 5 μg/ml blasticidin and 1% HT supplement (50×, hypoxanthine and thymidine). Compounds were tested on these cells using the AutoPatch technology in whole cell mode.
The external bathing solution contained (in mM): 150 NaCl, 10 KCl, 1 MgCl2, 3 CaCl2, 10 HEPES, pH 7.4 with NaOH. Patch pipettes were filled with an electrode solution of composition (in mM): 160 KCl, 0.5 MgCl2, 10 HEPES, 1 EGTA, pH 7.4 with KOH.
(§1) Compounds were dissolved in DMSO (100%) and made up in the external bather at a concentration of 1 μM. All experiments were conducted at room temperature (22-24° C.).
(§2) A cell suspension (10 ml), with a density of 100,000 cells/ml, was aliquoted into a 15 ml centrifuge tube and transferred to an incubator (37° C., 5% CO2) for approximately one hour before use. Following 60 min incubation, a tube was taken and centrifuged at 1000 rpm for 4 mins at room temperature. 9.5 ml supernatant was thence discarded, leaving a cell pellet at the bottom of the tube. The pellet was then resuspended using 100 μl of cold (4° C.), filtered (0.22 μm), 0.2% BSA/bather solution (0.02 g BSA/10 ml bather). The bottom of the tube was manually agitated gently until the solution became cloudy with cells. The 100 μl cell resuspension solution was then stored on the bench at 4° C. (using a Peltier-based temperature control device) until used.
(§3) A length of capillary glass (1B150F-4, WPI) was dipped into the cell suspension solution, such that ˜3 cm column of fluid was taken up by capillary action. A Ag/AgCl wire was dropped into the non-dipped end of the capillary also. The outside of the solution-filled end of the capillary was then dried and the capillary was loaded into the AutoPatch™. Borosilicate glass patch pipettes (from 1.5 mm OD, thin-walled filamented, GC150-TF capillary glass, Harvard) were pulled using a DMZ pipette puller (Zeitz Instruments), and were back-filled using the internal pipette solution, being careful that no bubbles remain at the tip or in the body of the pipette. Patch pipettes typically had resistances of 2.3-3.5 MΩ. Once filled, the pipette tip and a proportion of the shaft (˜15 mm) were dipped into Sigmacote (Sigma). The recording pipette was then loaded into the AutoPatch™. Automated patch-clamping was initiated by the operator, but thereafter AutoPatch.exe continued the experiment providing that pre-set conditions and criteria were satisfied.
(§4) Whole cell patch-clamp recordings were made using the AutoPatch™ rig, which incorporated an EPC9 or EPC10 amplifier (HEKA, Germany) under control of Pulse software (v8.54 or v8.76, HEKA, Germany), a motion controller with 2 translators (Newport, UK), valve controller (VF1) and a c-level suction device all at room temperature (22-24° C.). This equipment was completely under the control of AutoPatch.exe and operator intervention was only made when there was a requirement to refill the drug reservoirs or to prevent the loss of a cell due to a technical error. Cells with an Rseries greater than 18 MΩ were discounted from the experiment.
Qualification stages prior to perfusion and drug application ensured that the observed current met the criteria for the experiment. Only those cells with an IK>500 pA were used for experiments. Cells were continuously perfused with external solution at a flow rate of 1.8-2 ml/minute. […] Online analysis of the hKv1.5 current during the application of compounds was performed by the AutoPatch™ software. Voltage-step protocols and analysis of data was performed as described for conventional electrophysiology.
(§5) Electrophysiology voltage-step protocols and analysis of data was performed as follows. Data was sampled at 5 kHz, and filtered with a −3 dB bandwidth of 2.5 kHz. Cells were held at a voltage of −80 mV. […]

Another test has as its target T2, human Kv1.3 (Homo sapiens, UniProt P22001).
T2 construct: expressed in transfected cells; host or cells: stably transfected cells
Briefly: Kv1.3 Autopatch Electrophysiology. Type of test: cell-based. Conditions: 1 μM compound, CHO cells stably transfected with human Kv1.3, AutoPatch whole cell mode, room temperature; for inhibition at 1 µM: read-out: Kv 1.3% Inhibition at 1 μM. On the procedure:
Kv1.3 Autopatch Electrophysiology Method
Cells stably transfected with cDNA for human Kv1.3 (in pcDNA3.1) were grown in Ex-cell 302 serum-free medium for CHO cells, supplemented with 10 μl/ml [100×] glutamine, 500 μg/ml G418 ([…]), and 1% HT supplement (50×, hypoxanthine and thymidine). Compounds were tested on these cells using the AutoPatch technology in whole cell mode.
The external bathing solution contained (in mM): 150 NaCl, 10 KCl, 1 MgCl2, 3 CaCl2, 10 HEPES, pH 7.4 with NaOH. Patch pipettes were filled with an electrode solution of composition (in mM): 100 K-Gluconate, 20 KCl, 1 MgCl2, 1 CaCl2, 10 HEPES, 11 EGTA, 5 ATP—Na2, 2 Glutathione pH 7.2 with KOH.
as §1, §2, §3, §4
Qualification stages prior to perfusion and drug application ensured that the observed current met the criteria for the experiment. Only those cells with an IK>400 pA were used for experiments. Cells were continuously perfused with external solution at a flow rate of 1.8-2 ml/minute. […] Online analysis of the hKv1.3 current during the application of compounds was performed by the AutoPatch™ software. Voltage-step protocols and analysis of data was performed as described for conventional electrophysiology.
as §5

T1 sequence (P22460 whole entry): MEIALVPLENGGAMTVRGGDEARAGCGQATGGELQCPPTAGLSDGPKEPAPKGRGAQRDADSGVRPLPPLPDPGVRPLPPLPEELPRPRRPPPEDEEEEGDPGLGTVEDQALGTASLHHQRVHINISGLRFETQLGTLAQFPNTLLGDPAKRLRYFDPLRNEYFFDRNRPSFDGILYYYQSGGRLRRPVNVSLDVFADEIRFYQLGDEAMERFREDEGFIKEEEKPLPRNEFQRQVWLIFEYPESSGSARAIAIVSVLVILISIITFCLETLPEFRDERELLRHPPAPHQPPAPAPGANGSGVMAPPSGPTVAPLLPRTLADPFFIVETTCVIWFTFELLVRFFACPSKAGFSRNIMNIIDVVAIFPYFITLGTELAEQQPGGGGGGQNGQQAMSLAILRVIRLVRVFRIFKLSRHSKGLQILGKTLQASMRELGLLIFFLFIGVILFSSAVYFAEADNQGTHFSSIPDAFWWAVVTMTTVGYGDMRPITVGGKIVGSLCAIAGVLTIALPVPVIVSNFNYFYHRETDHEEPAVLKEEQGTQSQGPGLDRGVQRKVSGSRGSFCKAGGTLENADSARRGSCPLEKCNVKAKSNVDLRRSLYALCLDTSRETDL
T2 sequence (P22001 whole entry): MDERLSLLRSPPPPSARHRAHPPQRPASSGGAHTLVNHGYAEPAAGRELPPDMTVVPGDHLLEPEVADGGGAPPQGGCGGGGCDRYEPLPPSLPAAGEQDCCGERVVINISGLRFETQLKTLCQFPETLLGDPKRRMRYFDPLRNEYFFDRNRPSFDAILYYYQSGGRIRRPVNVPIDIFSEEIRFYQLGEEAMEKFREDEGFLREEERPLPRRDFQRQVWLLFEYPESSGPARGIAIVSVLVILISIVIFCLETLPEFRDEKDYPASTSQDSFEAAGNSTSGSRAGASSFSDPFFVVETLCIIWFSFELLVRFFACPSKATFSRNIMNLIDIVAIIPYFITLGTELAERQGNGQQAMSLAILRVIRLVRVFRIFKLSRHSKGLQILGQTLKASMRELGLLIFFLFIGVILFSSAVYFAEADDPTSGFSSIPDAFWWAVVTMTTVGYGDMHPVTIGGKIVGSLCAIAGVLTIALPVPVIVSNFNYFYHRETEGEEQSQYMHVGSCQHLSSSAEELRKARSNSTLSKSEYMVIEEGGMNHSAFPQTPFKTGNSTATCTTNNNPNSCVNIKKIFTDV

`Cc1ccc(-c2csc3c(-c4cccc(O)c4)cnc(NCc4ccccc4)c23)cc1` [Example 36, 3-(4-Benzylamino-3-p-tolyl-thieno[3,2-c]pyridin-7-yl)-phenol]: the inhibition at 1 µM at human Kv1.5 is 52.4%; on human Kv1.3, 15.5%.

Turning to `c1ccc(CCCCNc2nccc3scc(-c4ccccc4)c23)cc1` [Example 30, (4-Phenyl-butyl)-(3-phenyl-thieno[3,2-c]pyridin-4-yl)-amine], the “Kv 1.5% Inhibition at 1 μM” value on human Kv1.5 was determined as 65.8%. Also, at human Kv1.3, the “Kv 1.3% Inhibition at 1 μM” value is 82.8%.

`Fc1ccc(-c2csc3ccnc(NCc4ccccc4)c23)cc1` [Example 22, Benzyl-[3-(4-fluoro-phenyl)-thieno[3,2-c]pyridin-4-yl]-amine]: the inhibition at 1 µM on human Kv1.5 was determined as 90.2%; at human Kv1.3 it was 68.6%.

As to `Cc1ccc(-c2csc3c(-c4cccc(F)c4)cnc(NCc4ccccc4)c23)cc1` [Example 44, Benzyl-[7-(3-fluoro-phenyl)-3-p-tolyl-thieno[3,2-c]pyridin-4-yl]-amine], the inhibition at 1 µM on human Kv1.5 was 18.8%; on human Kv1.3, 29.6%.

Consider `Fc1ccc(-c2csc3ccnc(NCc4ccco4)c23)cc1` [Example 27, [3-(4-Fluoro-phenyl)-thieno[3,2-c]pyridin-4-yl]-furan-2-ylmethyl-amine], for which the inhibition at 1 µM on human Kv1.5 turned out to be 70.4%; at human Kv1.3, 45.9%.

Regarding `COc1cccc(-c2csc3ccnc(NCc4ccc5c(c4)OCCO5)c23)c1` [Example 19, (2,3-Dihydro-benzo[1,4]dioxin-6-ylmethyl)-[3-(3-methoxy-phenyl)-thieno[3,2-c]pyridin-4-yl)-amine], the inhibition at 1 µM on human Kv1.5 is 75.6%; on human Kv1.3, 73.5%.

Take `Cc1ccc(-c2csc3c(-c4cccc(C(=O)O)c4)cnc(NCc4ccccc4)c23)cc1` [Example 38, 3-(4-Benzylamino-3-p-tolyl-thieno[3,2-c]pyridin-7-yl)-benzoic acid]: the inhibition at 1 µM came out at 84.8% at human Kv1.5 and 41.3% at human Kv1.3.

With `c1ccc(-c2csc3ccnc(NCc4cccs4)c23)cc1` [Example 14, (3-Phenyl-thieno[3,2-c]pyridin-4-yl)-thiophen-2-ylmethyl-amine], the results for the inhibition at 1 µM on human Kv1.5 and at human Kv1.3 were 81.9% and 91.2%, respectively.

For the compound `Fc1ccc(-c2csc3ccnc(NCc4cccs4)c23)cc1` [Example 15, [3-(4-Fluoro-phenyl)-thieno[3,2-c]pyridin-4-yl]thiophen-2-ylmethyl-amine], the inhibition at 1 µM on human Kv1.5 came to 87.2%; at human Kv1.3 it was 91.9%.

For `Cc1ccc(-c2csc3c(-c4cccc(S(C)(=O)=O)c4)cnc(NCc4ccccc4)c23)cc1` [Example 41, Benzyl-[7-(3-methanesulfonyl-phenyl)-3-p-tolyl-thieno[3,2-c]pyridin-4-yl]-amine], the inhibition at 1 µM on human Kv1.5 was determined as 39.8%; on human Kv1.3, 26.3%.

As for `c1ccc(-c2csc3ccnc(NCc4ccccn4)c23)cc1` [Example 12, (3-Phenyl-thieno[3,2-c]pyridin-4-yl)-pyridin-2ylmethyl-amine], the results for the inhibition at 1 µM at human Kv1.5 and at human Kv1.3 were 59.6% and 46.1%, respectively.

The values are drawn from patent US9216992B2, “Thieno[3,2-c]pyridine potassium channel inhibitors” (Xention Limited, priority 2005, dated 2015).
